# Columns and labels:
# [1] = system: MC38 cells with CRISPR-based NQO1 Knockout; assay: Cell survival of NQO1 knockout MC38 cells; format: cell-based, murine; details: 3 hr exposure, survival 48 hr later
# Protocol: (FIG. 1A) NQO1 positive tumor cell lines MC38, TC-1 and Ag104Ld and NQO1 negative cell lines Panc02 and B16 grown in 48-well plates were treated with β-lap (0-8 μM) for a 3 hr followed by washing and replacing medium. Cell viability was determined by Sulforhodamine B (SRB) Assay 4 days later. […] (FIG. 1C) MC38 cells with CRISPR-based NQO1 Knockout (MC38 NQO1KO #5) planted in 96-well plates were exposed to β-lap for 3 hr and cell survival was assessed 48 hr later. […] (FIG. 1E) MC38 cells were exposed to a lethal dose of β-lap (4 μM) for indicated times, then stained with 7-AAD and Annexin V followed by flow cytometry analysis. […] (FIG. 1H) MC38 and B16 NQO1 #1 cells were exposed to β-lap for a 3 hr. Catalase (1000 U/ml) was added and cell survival was assessed 48 hr later. […] Tumor growth was monitored twice a week.
# FIGS. 17A-I (related to FIGS. 1A-J). […] (FIG. 17A) NQO1 expression in different murine cancer cell lines was determined by western blotting assay. […] Cell viability was determined by Sulforhodamine B (SRB) Assay 48 hr later. […] Cell viability was determined by SRB Assay 48 hr later. […] Catalase (1000 U/ml) was added and cell viability was assessed 48 hr later. […] Tumor growth was monitored twice a week. […] Data are shown as mean±SEM. **P<0.01, ***P<0.001, ****P<0.0001 determined by unpaired student t-test (FIG. 17G) or two-way ANOVA (FIG. 17H and FIG. 17I). […]
# MC38 tumor [2] = assay: MC38 subcutaneous syngeneic tumor model; format: in vivo, mice
# Protocol: (FIG. 1A) NQO1 positive tumor cell lines MC38, TC-1 and Ag104Ld and NQO1 negative cell lines Panc02 and B16 grown in 48-well plates were treated with β-lap (0-8 μM) for a 3 hr followed by washing and replacing medium. Cell viability was determined by Sulforhodamine B (SRB) Assay 4 days later. […] (FIG. 1C) MC38 cells with CRISPR-based NQO1 Knockout (MC38 NQO1KO #5) planted in 96-well plates were exposed to β-lap for 3 hr and cell survival was assessed 48 hr later. […] (FIG. 1E) MC38 cells were exposed to a lethal dose of β-lap (4 μM) for indicated times, then stained with 7-AAD and Annexin V followed by flow cytometry analysis. […] (FIG. 1H) MC38 and B16 NQO1 #1 cells were exposed to β-lap for a 3 hr. Catalase (1000 U/ml) was added and cell survival was assessed 48 hr later. (FIG. 1I) C57BL/6 mice (n=5/group) were transplanted with MC38 cells and treated with β-lap (0.03 mg, 0.1 mg or 0.3 mg, intratumorally; or 25 mg/kg, i.v.) every other day for four times. (FIG. 1J) C57BL/6 mice were transplanted with MC38 cells (NQO1 WT or KO, n=5/group) and treated with β-lap (0.3 mg, i.t.) every other day for four times. Tumor growth was monitored twice a week.
# (FIG. 2A) MC38 cells were subcutaneously transplanted into C57BL/6 WT (n=5-6/group) and Rag1 KO mice (n=5/group), respectively. Tumor bearing mice were treated with β-lap (0.3 mg, i.t.) every other day for four times. […] (FIG. 2B) MC38 tumor bearing C57BL/6 mice (n=5/group) were treated with β-lap (0.3 mg, i.t.) every other day for four times. For CD8^+ T cell depletion, 200 μg of anti-CD8 antibodies were intraperitoneally injected four times at three days interval during the treatment. (FIG. 2C) TC-1 tumor bearing C57BL/6 mice (n=4-5/group) were treated with β-lap (0.1 mg, i.t.) for four times with or without anti-CD8 antibodies. […] (FIG. 2E) 2×10^6 A549 cells were subcutaneously injected into C57BL/6 Rag1^−/− mice (n=5/group for vehicle and β-lap; n=7/group for vehicle+OT-1 and β-lap+OT-1). 30 days later, the mice were i.v. adoptively transfected with 2×10^6 lymph node cells from OT-1 transgenic mice. On the following day, tumor-bearing mice were intratumorally treated with β-lap (0.2 mg) every other day for 4 times. (FIG. 2F) A549 cells were subcutaneously injected into NSG-SGM3 (n=5/group) or NSG-SGM3 harboring human CD34^+ hematopoietic stem cells (n=5/group for Hu-NSG vehicle; n=6/group for Hu-NSG β-lap). Tumor bearing mice were treated with β-lap (0.2 mg, i.t.) every other day for four times. Tumor growth was measured twice a week.
# (FIG. 6A) Treatment schema for local β-lap treatment based combinative therapy in FIG. 6B and FIG. 6C. (FIGS. 6B-C) MC38 tumor cells were s.c. inoculated into the flank of C57BL/6 mice (n=5/group). Mice bearing small tumor (about 50 mm^3, B) or advanced tumor (about 150-200 mm^3, FIG. 6C) were locally treated with β-lap (0.3 mg, i.t.) for four times with or without anti-PD-L1 based checkpoint blockage.
# NQO1 = NQO1 (Homo sapiens, UniProt P15559); details: in ~2 min; cited from earlier work
# Sequence of NQO1 (P15559 whole entry, species assumed): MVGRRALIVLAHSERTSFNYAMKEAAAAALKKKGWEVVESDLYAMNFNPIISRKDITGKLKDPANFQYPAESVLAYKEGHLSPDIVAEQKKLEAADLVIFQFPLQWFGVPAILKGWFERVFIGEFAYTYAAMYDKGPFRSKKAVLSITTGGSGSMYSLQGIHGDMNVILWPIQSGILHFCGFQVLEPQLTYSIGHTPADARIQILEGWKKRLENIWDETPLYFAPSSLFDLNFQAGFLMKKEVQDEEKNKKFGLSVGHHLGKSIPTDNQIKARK
# MC38 tumor [3] = assay: MC38 subcutaneous syngeneic tumor model; format: in vivo, mice; remark: listed apart in the source
structure (smiles),measurement,setting,value
"CC1(C)CCC2=C(O1)c1ccccc1C(=O)C2=O [β-lap, β-lapachone]",response to β-lap (cell survival),[1],resistance to β-lap treatment
same,re-challenge of cured mice,"MC38 tumor [2]; 3×10^6 MC38 cells, 30 days after complete rejection",rejected the re-challenged tumors
same,therapeutic activity in immune-deficient mice,"MC38 tumor [2]; Rag1 KO C57BL/6 mice, 0.3 mg i.t. four times",lost therapeutic activity
same,TGI,"MC38 tumor [2]; large established tumors (about 150-200 mm^3), β-lap 15 mg/kg i.t. four times, anti-PD-L1 100 μg i.p. three times",59.36%
same,Tumor growth inhibition rate (TGI),"MC38 tumor [2]; local (intratumoral) β-lap 1.5 mg/kg mg, every other day 4 doses",11.8%
same,Tumor growth inhibition rate (TGI),"MC38 tumor [2]; local (intratumoral) β-lap 5 mg/kg, every other day 4 doses",69.4%
same,Tumor growth inhibition rate (TGI),"MC38 tumor [2]; local (intratumoral) β-lap 15 mg/kg mg, every other day 4 doses",89.3%
same,Tumor growth inhibition rate (TGI),"MC38 tumor [2]; systemic β-lap 25 mg/kg i.v., every other day four times",62.5%
same,antitumor effect with CD8+ T cell depletion,MC38 tumor [2]; β-lap 0.3 mg i.t. + anti-CD8 200 μg,abolished β-lap's antitumor effect
same,response with macrophage depletion,MC38 tumor [2]; β-lap 0.3 mg i.t. + anti-CSF1R Ab 100 μg i.t.,did not affect the response
same,therapeutic effect with type I IFN blockade,MC38 tumor [2]; β-lap 0.3 mg i.t. + anti-IFNAR1 150 μg i.t.,significantly diminished the therapeutic effect
same,therapeutic effect in Batf3−/− mice,MC38 tumor [2]; β-lap 0.3 mg i.t. four times,no therapeutic effect
same,tumor regression in Myd88−/− mice,MC38 tumor [2]; β-lap 0.3 mg i.t. four times,disappeared
same,NAD(P)H consumed by one mole of drug,NQO1,~60 mol
same,superoxide generated by one mole of drug,NQO1,~120 mol
same,tumor growth with irradiation,"MC38 tumor [3]; 10 Gy + 0.1 mg β-lap, 3 i.t. injections, tumors 100 mm^3",significant inhibition of tumor growth
same,response with irradiation,"MC38 tumor [3]; 10 Gy + β-lap 30 mg/kg i.p. every other day, 6 injections, tumors 50 mm3",significant synergistic responses
same,therapeutic effect in NQO1 knockout MC38 mouse models,"MC38 tumor [3]; NQO1 KO MC38, 0.3 mg i.t. four times",abolished
same,mice cured,"MC38 tumor [3]; WT C57BL/6, 4 doses of β-lap (0.3 mg, i.t.)",50%
same,mice with complete tumor rejection,"MC38 tumor [3]; local β-lap 15 mg/kg, 7/15 mice",46.7%
same,TGI,"MC38 tumor [3]; small tumors (about 50 mm^3), β-lap 0.3 mg i.t. four times",93.0%
same,antitumor efficacy with anti-IFNAR blocking antibody,"MC38 tumor [3]; β-lap 0.1 mg i.t., anti-IFNAR Ab 150 μg",greatly impaired the antitumor efficacy
same,effect with HMGB1 blockade,MC38 tumor [3]; β-lap 0.3 mg i.t. + anti-HMGB1 200 μg i.p.,diminished the effect
same,therapeutic effect with neutrophil depletion,MC38 tumor [3]; β-lap 0.3 mg i.t. + anti-Ly-6G 200 μg,greatly impaired the therapeutic effect
same,tumor regression in IFNAR knockout mice,"MC38 tumor [3]; β-lap 0.3 mg i.t. day 9, 12, 15",totally abrogated
same,therapeutic effect in Ifnar−/− mice,MC38 tumor [3]; β-lap 0.3 mg i.t. four times,abrogated
same,antitumor effect alone or with CD4+ T cell depletion,MC38 tumor [3]; β-lap 0.3 mg i.t. ± anti-CD4 200 μg,controlled MC38 tumor growth
same,"tumor growth, systemic treatment","MC38 tumor [3]; β-lap 30 mg/kg i.p. six times, anti-PD-L1, tumors about 50-100 mm^3",moderate inhibition of tumor growth

# Reference: patent US20220160703A1, “TUMOR-SELECTIVE COMBINATION THERAPY” (The Board of Regents of The University of Texas System, priority 2019, published 2022)
